Publication PMC8894567 (The Journal of Antibiotics, 2022)

What was measured:
influenza virus A H7N1 = details: cited from earlier work
[1] = tested on: influenza virus A/Puerto Rico/8/34 (H1N1); type: cell-based
influenza type B = details: cited from earlier work
influenza type A virus = details: cited from earlier work
herpes virus = details: read-out: EC50 antiherpetic; cited from earlier work
HIV = details: read-out: EC50 anti-HIV activity; cited from earlier work
Flu A H1N1 strain = details: cited from earlier work

3-oxime of betulonic acid and L-leucine-28-amide
EC50 (influenza virus A H7N1): 2.17 µM
suppression of influenza virus A H7N1 (influenza virus A H7N1): 90%

CC(N)C12CC3CC(CC(C3)C1)C2 (stereo not drawn) [Rimantadine]
SI, selectivity index CC50/IC50 [1]: 5

COC(=O)[C@]12CC[C@@H](C)[C@H](C)[C@H]1C1=CC[C@@H]3[C@@]4(C)CC[C@H](O)C(C)(C)[C@@H]4CC[C@@]3(C)[C@]1(C)CC2 [methyl ester of ursolic acid]
protection index (influenza type B): 80%
protection index (influenza type A virus): 60%

Alnincanone
protection index (influenza type B): 80%
protection index (influenza type A virus): 60%

Ethyl β-alaninate diamide 2,3 seco-lupane
EC50 (herpes virus): 4.1 µM
EC50 (HIV): 5.1 µM

echinocystic acid
protection index (influenza type B): 80%
protection index (influenza type A virus): 60%

lupane 3,4-seco-3,28-bis-N,N-methylpiperazine-amide
IC50 (Flu A H1N1 strain): 27 µM
